This is an account of results in patent publication US20250144067A1, “PERSONALIZED STARVATION THERAPY FOR CANCER” (Faeth Therapeutics, Inc., priority 2021, published 2025).

Structures can show the parent of a compound that is named as a salt. Where two headings read alike, the source gives them in different places. Ends that are not written are not given here.

In test [1] the test system is NCI-H292 lung cancer cells. In words: FDA drug screening, complete media vs cholesterol-free media without statin (TABLE 1). It counts as cell-based, human.
Test [2] has as its system NCI-H292 lung cancer cells. In words: FDA drug screening, complete media vs cholesterol-free media with simvastatin (TABLE 2). It counts as cell-based, human.
Setting [3] is: NCI-H292 cells, cholesterol-free media without statin, FDA drug library screen.
Setting [4] is: NCI-H292 cells, complete media, FDA drug library screen.
The mark [5] stands for this setting: complete vs cholesterol-free media, >0 enhanced anti-cancer activity, about 0 neutral, <0 antagonist.
The mark [6] stands for this setting: NCI-H292 cells, FDA drug library screen, cholesterol-free media with simvastatin 0.04 μM.
Where [7] appears, read: NCI-H292 cells, FDA drug library screen, complete media.
Setting [8] is: complete media vs cholesterol-free media + simvastatin (0.04 μM), >0 enhanced anti-cancer activity, about 0 neutral, <0 antagonist.
The mark [9] stands for this setting: NCI-H292 cells, drug in cholesterol-free media with simvastatin 0.04 μM.
Setting [10] is: NCI-H292 cells, drug in complete media.
Where [11] appears, read: Complete minus Cholesterol-free, […].
Where [12] appears, read: NCI-H292 cells, FDA drug library screen, cholesterol-free media without statin.
Setting [13] is: NCI-H292 cells, cholesterol-free media with simvastatin 0.04 μM, FDA drug library screen (TABLE 2).
[14] abbreviates: NCI-H292 cells, complete media, FDA drug library screen (TABLE 2).
Where [15] appears, read: complete media minus cholesterol-free media + simvastatin (0.04 μM), […].
Where [16] appears, read: Complete minus Cholesterol-free, greater than 0 enhanced anti-cancer activity, about 0 neutral, below 0 antagonist.
Where [17] appears, read: NCI-H292 cells, cholesterol-free media with simvastatin 0.04 μM, cell growth value in FDA drug screen.
Setting [18] is: NCI-H292 cells, complete media, cell growth value in FDA drug screen.
[19] abbreviates: complete media minus cholesterol-free media + simvastatin, >0 enhanced anti-cancer activity, about 0 neutral, <0 antagonist.
Where [20] appears, read: Complete minus Cholesterol-free, >0 enhanced anti-cancer activity, about 0 neutral, <0 antagonist.
Setting [21] is: NCI-H292 cells, cholesterol-free media without statin.
Setting [22] is: complete vs cholesterol-free media, greater than 0 enhanced anti-cancer activity, about 0 neutral, below 0 antagonists.
Where [23] appears, read: NCI-H292 cells in cholesterol-free media without statin.
Setting [24] is: NCI-H292 cells in complete media.
Where [25] appears, read: Complete minus Cholesterol-free, greater than 0 enhanced anti-cancer activity, about 0 neutral, below 0 antagonists.

The molecule `CN(C)CCC=C1c2ccccc2CCc2ccccc21` [Amitriptyline (hydrochloride)] had a Cholesterol-free in test [1] (setting [3]) of 0.8567. In test [1] (setting [4]), this molecule had a Complete of 1.344. Besides, the Difference is 0.49 in test [1] (setting [5]) and −0.14 in test [2] (setting [8]). Further, the “Cholesterol-free media + simvastatin (0.04 μM)” value in test [2] (setting [6]) is 0.9551. In test [2] (setting [7]), the “Complete Media” value is recorded as 0.8184.

In test [1] (setting [3]), `CC(=O)OCC1=C(C(=O)O)N2C(=O)[C@@H](NC(=O)Cc3cccs3)[C@H]2SC1` [Cephalothin (sodium)] registered a Cholesterol-free of 0.5607. This molecule also returned a Complete in test [1] (setting [4]) of 1.228. Also, the Difference in test [1] (setting [5]) is given as 0.67; in test [2] (setting [8]) it was −0.20. The “Cholesterol-free media + simvastatin (0.04 μM)” value in test [2] (setting [9]) is 0.9867. For the same molecule, the “Complete Media” value in test [2] (setting [10]) is on record as 0.7901.

Regarding `O=NN(CCCl)C(=O)NC1CCCCC1` [Lomustine], the Difference in test [1] (setting [11]) is listed as −0.14; in test [2] (setting [15]), 0.00. The Cholesterol-free in test [1] (setting [12]) came to 1.107. Besides, in test [1] (setting [7]), the Complete was found to be 0.965. The “Cholesterol-free media + simvastatin (0.04 μM)” value in test [2] (setting [13]) stood at 0.7579. In test [2] (setting [14]), the “Complete Media” value was determined as 0.7602.

Take `CO/N=C(\C(=O)N[C@@H]1C(=O)N2C(C(=O)OC(C)OC(C)=O)=C(COC(N)=O)CS[C@H]12)c1ccco1` (stereo partly drawn) [Cefuroxime axetil]: the Difference is recorded as −0.18 in test [1] (setting [16]) and 0.02 in test [2] (setting [19]). This molecule came in with a Cholesterol-free in test [1] (setting [12]) of 0.8605. For the same molecule, the Complete in test [1] (setting [7]) was 0.6767. For the same molecule, in test [2] (setting [17]), the “Cholesterol-free media + simvastatin (0.04 μM)” value is given as 1.05. Moreover, in test [2] (setting [18]), the “Complete Media” value came out at 1.073.

Take `CN(C)CCCN1c2ccccc2CCc2ccccc21` [Imipramine (hydrochloride)]: the values for the Difference in test [1] (setting [20]) and in test [2] (setting [8]) were −0.21 and −0.07, respectively. The same molecule showed a Cholesterol-free in test [1] (setting [21]) of 1.052. Moreover, the Complete in test [1] (NCI-H292 cells, complete media) is reported as 0.8395. Besides, the “Cholesterol-free media + simvastatin (0.04 μM)” value in test [2] (setting [6]) turned out to be 0.9417. Besides, the “Complete Media” value in test [2] (setting [7]) was found to be 0.8694.

For `CCC(Cc1c(I)cc(I)c(N)c1I)C(=O)O` (stereo not drawn) [Iopanoic acid], the Difference in test [1] (setting [16]) is −0.10; in test [2] (setting [19]), 0.24. In test [1] (setting [12]), this molecule had a Cholesterol-free of 1.02. The same molecule displayed a Complete in test [1] (setting [7]) of 0.9191. Also, the “Cholesterol-free media + simvastatin (0.04 μM)” value in test [2] (setting [6]) was determined as 1.115. For the same molecule, the “Complete Media” value in test [2] (setting [7]) came to 1.353.

Consider `O=C(O)c1ccc(-n2nc(-c3ccccc3O)nc2-c2ccccc2O)cc1` [Deferasirox], for which the Cholesterol-free in test [1] (setting [21]) is recorded as 1.441. In test [1] (NCI-H292 cells, complete media), the Complete was determined as 0.9894. Moreover, the Difference in test [1] (setting [22]) was −0.45; in test [2] (setting [8]), −0.26. The “Cholesterol-free media + simvastatin (0.04 μM)” value in test [2] (setting [9]) worked out at 1.22. In addition, the “Complete Media” value in test [2] (setting [10]) stood at 0.9596.

`CCO[C@H]1O[C@@H]2O[C@@]3(C)CC[C@H]4[C@H](C)CC[C@@H]([C@H]1C)[C@@]24OO3` [Artemotil]: the Difference is −0.21 in test [1] (setting [20]) and −0.16 in test [2] (setting [8]). In test [1] (setting [21]), the Cholesterol-free worked out at 0.7572. In test [1] (NCI-H292 cells, complete media), this molecule had a Complete of 0.5514. The “Cholesterol-free media + simvastatin (0.04 μM)” value in test [2] (setting [6]) was found to be 0.9606. Further, the “Complete Media” value in test [2] (setting [7]) worked out at 0.8046.

For “Argipressin (CYFQNCPRG; not fully specified (C-terminus, bridges); cysteine pairing not given here; UniProt P01185 20-28, looked up)”, the Difference in test [1] (setting [11]) is −0.56; in test [2] (complete media vs cholesterol-free media + simvastatin (0.04 μM), […]), −0.34. Moreover, the Cholesterol-free in test [1] (setting [23]) was 1.358. Further, in test [1] (setting [24]), the Complete is given as 0.7951. In addition, the “Cholesterol-free media + simvastatin (0.04 μM)” value in test [2] (NCI-H292 cells, FDA library drug in cholesterol-free media with simvastatin 0.04 μM) was 1.506. Further, the “Complete Media” value in test [2] (NCI-H292 cells, FDA library drug in complete media) is reported as 1.167.

For the molecule `CC(C)CN(C[C@@H](O)[C@H](Cc1ccccc1)NC(=O)O[C@H]1CO[C@H]2OCC[C@H]21)S(=O)(=O)c1ccc(N)cc1` [Darunavir (Ethanolate)], in test [1], the Cholesterol-free worked out at 0.8952 and the Difference is 0.25. In test [2], the “Cholesterol-free media + simvastatin (0.04 μM)” value amounted to 1.545, the “Complete Media” value is given as 1.286 and the Difference is −0.26.

On to Chloramphenicol succinate (sodium), for which, in test [1], the Cholesterol-free is 0.9119, the Complete amounted to 0.8447 and the Difference is listed as −0.07. Moreover, in test [2], the “Cholesterol-free media + simvastatin (0.04 μM)” value is listed as 0.9173, the “Complete Media” value turned out to be 0.8083 and the Difference is listed as −0.11.

In the case of `CCC(=O)NCC[C@@H]1CCc2ccc3c(c21)CCO3` [Ramelteon], the Difference in test [1] (setting [16]) was −0.10; in test [2] (setting [19]) it was 0.15. In addition, in test [1] (setting [12]), the Cholesterol-free was found to be 0.9442. Besides, the Complete in test [1] (setting [7]) is 0.8409. In test [2] (setting [6]), the “Cholesterol-free media + simvastatin (0.04 μM)” value stood at 1.166. Besides, the “Complete Media” value in test [2] (setting [7]) turned out to be 1.318.

`CN(CCOc1ccc(CC2SC(=O)NC2=O)cc1)c1ccccn1` (stereo not drawn) [Rosiglitazone]: the Difference is −0.21 in test [1] (setting [20]) and 0.25 in test [2] (setting [19]). This molecule also gave a Cholesterol-free in test [1] (setting [21]) of 1.222. In test [1] (NCI-H292 cells, complete media), this molecule had a Complete of 1.017. Besides, in test [2] (setting [6]), the “Cholesterol-free media + simvastatin (0.04 μM)” value was determined as 1.707. The “Complete Media” value in test [2] (setting [7]) came to 1.955.

Take Gadopentetate (dimeglumine): the Difference is on record as −0.06 in test [1] (setting [11]) and −0.05 in test [2] (setting [15]). Besides, the Cholesterol-free in test [1] (setting [3]) was 1.132. Moreover, in test [2] (setting [14]), the “Complete Media” value stood at 1.1.

With `CCOc1ccccc1C(N)=O` [2-Ethoxybenzamide], the Difference is −0.07 in test [1] (setting [20]) and −0.14 in test [2] (setting [8]). In test [1] (setting [3]), this molecule had a Cholesterol-free of 1.024. In test [1] (setting [4]), this molecule yielded a Complete of 0.9559. Further, the “Cholesterol-free media + simvastatin (0.04 μM)” value in test [2] (setting [6]) is on record as 1.119. The “Complete Media” value in test [2] (setting [7]) was determined as 0.9754.

On to `C[C@@H]1O[C@@H](OC[C@H]2O[C@@H](Oc3c(-c4ccc(OCCO)c(OCCO)c4)oc4cc(OCCO)cc(O)c4c3=O)[C@H](O)[C@@H](O)[C@@H]2O)[C@H](O)[C@H](O)[C@H]1O` [Troxerutin], for which the Difference in test [1] (setting [16]) is −0.13; in test [2] (setting [19]), 0.10. This molecule had a Cholesterol-free in test [1] (setting [12]) of 1.15. In test [1] (setting [7]), this molecule came in with a Complete of 1.021. The “Cholesterol-free media + simvastatin (0.04 μM)” value in test [2] (setting [17]) is on record as 0.8482. Moreover, the “Complete Media” value in test [2] (setting [18]) is on record as 0.9455.

In the case of `C[N+](C)(C)CC(=O)O` [Betaine (hydrochloride)], the results for the Difference in test [1] (setting [25]) and in test [2] (setting [8]) were −0.76 and −0.19, respectively. In addition, the Cholesterol-free in test [1] (setting [23]) amounted to 1.594. The Complete in test [1] (setting [24]) was 0.8295. In test [2] (setting [9]), the “Cholesterol-free media + simvastatin (0.04 μM)” value amounted to 1.292. Also, the “Complete Media” value in test [2] (setting [10]) was 1.099.

For `CC(Oc1c(Cl)cccc1Cl)C1=NCCN1` (stereo not drawn) [Lofexidine (hydrochloride)], the Difference is listed as −0.50 in test [1] (setting [25]) and 0.10 in test [2] (setting [19]). This molecule gave a Cholesterol-free in test [1] (setting [23]) of 1.453. This molecule had a Complete in test [1] (setting [24]) of 0.95. In test [2] (setting [17]), the “Cholesterol-free media + simvastatin (0.04 μM)” value turned out to be 1.271. In test [2] (setting [18]), the “Complete Media” value was 1.376.

In turn, `C[N+](C)(C)CCOP(=O)([O-])OP(=O)([O-])OC[C@H]1O[C@@H](n2ccc(N)nc2=O)[C@H](O)[C@@H]1O.[Na+]` [Citicoline (sodium)] had a Cholesterol-free in test [1] (setting [21]) of 1.151. In test [1] (NCI-H292 cells, complete media), this molecule returned a Complete of 0.8125. The Difference in test [1] (setting [22]) is recorded as −0.34; in test [2] (complete media minus cholesterol-free media + simvastatin (0.04 μM), >0 enhanced anti-cancer activity, about 0 neutral, <0 antagonist), −0.04. The “Cholesterol-free media + simvastatin (0.04 μM)” value in test [2] (setting [13]) turned out to be 1.337. In addition, in test [2] (setting [14]), the “Complete Media” value was 1.292.
